Reference: patent publication US10458911B2, “Method for searching candidate material for anti-cancer drug using localized surface plasmon resonance” (KOREA UNIVERSITY RESEARCH AND BUSINESS FOUNDATION, priority 2015, dated 2019)

Key:
[1] = biological target: T1, STAT3 protein extracted from MCF-7 cells (Homo sapiens, UniProt P40763); assay: Single nanoplasmonic biosensor (LSPR shift), dimerization step with STAT3 extracted from MCF-7 cells treated with STA-21; type: cell-based
T1 construct: Phosphorylated STAT3 protein (10 μg mL^−1) extracted from Michigan Cancer Foundation-7 (MCF-7) cells was used; endogenous in cells; host or cells: MCF-7
Protocol: Subsequently, the phosphorylation and the dimerization of STAT3 were conducted as follows. In the first step, after ˜50 nm AuNPs were immobilized onto a coverslip slide, all unbound AuNPs and contaminants were removed, and the surface of the amino-modified AuNPs was cleaned by injecting nuclease-free water for 1 h. In the second step, after STAT3 protein was conjugated to the AuNPs, 300 μL, of the STAT3 solution ([…] in 50 mM Tris-HCl buffer, pH 7.4, containing 150 mM NaCl and 25% glycerol) containing STAT3 protein (10 μg mL^−1) was injected into the immobilized AuNPs and incubated overnight. […]
(§1) The changes in the LSPR spectra of the single amino-modified AuNPs in response to STAT3 protein conjugation, STAT3 phosphorylation, dimerization or inhibition of STAT3 dimerization were recorded. […] The wavelength shift (Δλmax) was calculated using the following formula: λmax (after reaction)−λmax (before reaction).
The MCF-7 cells, human breast tumor cell lines, were cultured in Dulbecco's modified Eagle's medium (DMEM, Thermo Scientific, USA) containing 10% (v/v) fetal bovine serum (FBS, Thermo Scientific, USA) and 3% penicillin/streptomycin (Thermo Scientific, USA) at 37° C. in a humidified atmosphere containing 5% CO2. The inocula of cells were determined using a hemacytometer with a vital dye, trypan blue. […]

STAT3 protein [2] = biological target: T2, STAT3 protein (Homo sapiens, UniProt P40763); assay: Native polyacrylamide gel electrophoresis of STAT3 dimerization and its inhibition; type: biochemical; settings: lane 4, with STA-21; 167 kDa dimer without inhibitor (lane 3); FIG. 5A
Source text: Analysis of STAT3 dimerization and inhibition of STAT3 dimerization was confirmed by native polyacrylamide gel electrophoresis on 6% native gels using a standard protocol (Y. Jv, B. Li and R. Cao, Chem. Commun., 2010, 46, 80178019). The samples which formed the dimerization and inhibited the dimerization were loaded into the 6% native gel running at a voltage of 10 V cm^−1.

STAT3 protein [3] = biological target: T2, STAT3 protein; assay: Single nanoplasmonic biosensor (LSPR shift), inhibition of STAT3 dimerization with recombinant STAT3; type: biochemical; set-up: purchased Sigma Aldrich (Korea)
Protocol: Individual amino-modified AuNPs, ˜50 nm AuNPs, were immobilized onto a glutaraldehyde coated coverslip slide (22×40×0.1 mm) by dropping 10 μL of the dilute amino-modified AuNP solution (FIG. 2). The glass slide was mounted to an RC-30HV closed-bath imaging chamber (Warner Instruments, USA) to visualize the AuNPs after the addition of adsorbates and reactants. The imaging chamber (Warner Instruments, USA) was subsequently inserted onto the holder of the darkfield microscope (Eclipse TE2000-U, Nikon, Japan), and the fluidic flow was set at 100 μL min^−1 by connection to a syringe pump (Harvard Apparatus).
Subsequently, the phosphorylation and the dimerization of STAT3 were conducted as follows. In the first step, after ˜50 nm AuNPs were immobilized onto a coverslip slide, all unbound AuNPs and contaminants were removed, and the surface of the amino-modified AuNPs was cleaned by injecting nuclease-free water for 1 h. […]
as §1

T2 sequence (P40763 whole entry): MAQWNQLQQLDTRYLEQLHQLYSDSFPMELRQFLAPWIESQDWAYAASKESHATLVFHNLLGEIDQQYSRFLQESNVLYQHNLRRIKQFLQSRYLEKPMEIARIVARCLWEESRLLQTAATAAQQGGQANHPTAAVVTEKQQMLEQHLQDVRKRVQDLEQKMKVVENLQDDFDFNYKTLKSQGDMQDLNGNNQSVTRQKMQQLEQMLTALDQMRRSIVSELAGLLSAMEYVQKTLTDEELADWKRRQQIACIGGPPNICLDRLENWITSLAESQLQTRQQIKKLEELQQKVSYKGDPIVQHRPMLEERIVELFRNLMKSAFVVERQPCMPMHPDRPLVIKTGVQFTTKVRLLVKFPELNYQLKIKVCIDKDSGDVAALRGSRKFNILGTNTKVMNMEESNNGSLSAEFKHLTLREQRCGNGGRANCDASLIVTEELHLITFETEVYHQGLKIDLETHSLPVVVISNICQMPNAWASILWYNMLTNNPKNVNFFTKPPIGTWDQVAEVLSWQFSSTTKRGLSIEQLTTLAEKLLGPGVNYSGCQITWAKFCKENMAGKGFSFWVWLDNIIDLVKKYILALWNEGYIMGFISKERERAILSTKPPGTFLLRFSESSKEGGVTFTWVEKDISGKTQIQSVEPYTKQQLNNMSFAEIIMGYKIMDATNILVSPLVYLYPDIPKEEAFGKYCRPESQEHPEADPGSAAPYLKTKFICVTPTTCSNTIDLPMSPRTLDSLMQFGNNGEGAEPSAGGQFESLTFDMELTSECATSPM
T1 sequence (P40763 2-770 limits assumed): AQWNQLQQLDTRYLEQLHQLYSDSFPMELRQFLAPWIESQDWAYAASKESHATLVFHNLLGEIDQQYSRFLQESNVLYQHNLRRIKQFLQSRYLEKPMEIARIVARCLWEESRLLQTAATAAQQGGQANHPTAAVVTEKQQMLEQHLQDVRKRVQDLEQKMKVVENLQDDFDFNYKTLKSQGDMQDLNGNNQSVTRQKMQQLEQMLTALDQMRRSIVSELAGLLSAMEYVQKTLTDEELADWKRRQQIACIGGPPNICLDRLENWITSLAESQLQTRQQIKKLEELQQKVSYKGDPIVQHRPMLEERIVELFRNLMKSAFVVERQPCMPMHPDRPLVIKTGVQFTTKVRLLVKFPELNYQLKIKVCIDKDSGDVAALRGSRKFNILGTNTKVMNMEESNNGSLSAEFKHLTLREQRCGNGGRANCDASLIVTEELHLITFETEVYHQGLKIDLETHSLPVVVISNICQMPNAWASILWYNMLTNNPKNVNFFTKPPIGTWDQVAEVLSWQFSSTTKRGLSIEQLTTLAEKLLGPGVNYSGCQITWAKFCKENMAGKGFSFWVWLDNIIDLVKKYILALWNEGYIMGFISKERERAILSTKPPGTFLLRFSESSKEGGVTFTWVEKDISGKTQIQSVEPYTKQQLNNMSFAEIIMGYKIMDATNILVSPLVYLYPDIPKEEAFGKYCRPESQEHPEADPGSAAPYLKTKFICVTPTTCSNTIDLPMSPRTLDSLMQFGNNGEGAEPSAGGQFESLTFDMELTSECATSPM

STAT3 dimer formation ([1]; STAT3 from MCF-7 cells treated with STA-21): did not form a STAT3 dimer | red shift of the LSPR λmax for the dimerization step in the presence of inhibitor ([1]; STAT3 from MCF-7 cells treated with STA-21 for 24 h, 10.00 nm in the absence, FIG. 4C): 3.34 nm | STAT3 species observed by Native PAGE (STAT3 protein [2]): 90 kDa monomer | red shift of the LSPR λmax in the dimerization step in the presence of inhibitor (STAT3 protein [3]; STA-21 1 μM, recombinant STAT3 protein, 9.00 nm in the absence, FIG. 4C): 2.65 nm | STAT3 dimerization inhibited (STAT3 protein [3]; STA-21 at 10^3 nM, recombinant STAT3): 100%
SMILES: C[C@@H]1CC(=O)c2c(ccc3c2C(=O)c2cccc(O)c2C3=O)C1 [STA-21]
